# Measured values reported in article PMC10143845, “Series of Organotin(IV) Compounds with Different Dithiocarbamate Ligands Induced Cytotoxicity, Apoptosis and Cell Cycle Arrest on Jurkat E6.1, T Acute Lymphoblastic Leukemia Cells” (Molecules, 2023).
# “Also recorded” adds a separate entry of the source. Like-named read-outs stand apart in the source and are kept apart here.
# Tests used:
# Jurkat E6.1 cells [1] = assay: Cell cycle analysis with RNase/PI stain by flow cytometry; assay type: cell-based, human; conditions: Jurkat E6.1, treated at IC50 concentration, 24 h; for cells in G0/G1 phase / cells in G2/M phase / cells in S phase: mean ± SEM
# Procedure: Cell cycle analysis was performed according to the manufacturer’s instructions using PI/RNase Staining Buffer (BD Bioscience, East Rutherford, NJ, USA). For this assay, the Jurkat E6.1 cell line was cultured in 6-well culture plates with a final concentration of 1.0 × 10^6 cells/mL and treated with organotin(IV) dithiocarbamate compounds for 24 h, with vincristine as the positive control. The concentration of each treatment used was based on the IC50 values obtained from the WST-1 assay. After the incubation period, 500 µL of cell suspension was washed twice with cold PBS and fixed overnight with 500 µL of 70% ethanol. The cells were then stained with 500 µL RNase/PI stain and measured using a BD FACS Canto II flow cytometer (BD Bioscience, East Rutherford, NJ, USA). The cell cycle phases were analyzed using the ModFit LT software (Verity Software House).
# [2] = tested on: Jurkat E6.1 human T acute lymphoblastic leukemia cell line; assay: WST-1 cytotoxicity assay on Jurkat E6.1 cells; conditions: for IC50: read-out: Value of IC50 Jurkat E6.1; for Selectivity Index (SI): IC50 non-cancerous cell line (WIL2-NS) / IC50 leukemia cell line (Jurkat E6.1); for kind of effect on the cells (cytostatic or cytotoxic): Jurkat E6.1, WST-1, up to 5.0 μM, 24 h
# Procedure: (§1) The Jurkat E6.1 (TIB-152™) and WIL2-NS (CRL-8155™) cell lines were purchased from the American Type Culture Collection. These cells were cultured in Roswell Park Memorial Institute Medium 1640, RPMI-1640 supplemented with 10% Fetal Bovine Serum (FBS) and 1% penicillin-streptomycin to obtain the complete growth medium. The cells were incubated at 37 °C with 5% CO2 (New Brunswick Galaxy 170 S, Hamburg, Germany).
# (§2) Jurkat E6.1 and WIL2-NS cell lines were cultured in 75 cm^2 flasks and seeded in 96-well culture plates with a final concentration of 1 × 10^6 cells/mL. The cells were exposed to organotin(IV) dithiocarbamate compounds with the highest concentration of 5.0 μM. Vincristine was used in this study as a positive control with its highest concentration, at 5.0 μM, while untreated cells (cells and complete medium only) were used as the negative control. Serial dilution methods are used to obtain the desired concentration gradient and the cells were then exposed to the compounds overnight (24 h). After the incubation period, the WST-1 solution (Roche, Basel, Switzerland) was added in a ratio of 1:10 to the suspension volume in the wells and incubated for another 4 h. Finally, the cells’ optical density (OD) was measured using an ELISA microplate reader (Multiskan FC, Thermo Scientific, Waltham, MA, USA) at 440 nm wavelength. The data obtained were analyzed using GraphPad Prism software (Dotmatics) to determine the IC50 values.
# (§3) The selectivity index is determined by dividing the cytotoxic activity (IC50 value) of each compound on a non-cancerous cell line (WIL2-NS) to a leukemia cell line (Jurkat E6.1) using the following equation:SI = IC50 for non cancerous cell line IC50 for cancerous cell line
# in vitro = conditions: human
# Procedure: as §1, §2, §3
# Jurkat E6.1 cells [3] = assay: Annexin V-FITC/PI apoptosis assay (mode of cell death) by flow cytometry; assay type: cell-based, human; conditions: Jurkat E6.1, treated at IC50 concentration, 24 h; for cell population in early apoptotic phase / cell population in late apoptotic phase: mean ± SEM; for total apoptosis population: early + late apoptosis
# Procedure: Apoptosis assay was performed according to the manufacturer’s instructions using Annexin V-FITC/PI staining kit (BD Biosciences, East Rutherford, NJ, USA). The Jurkat E6.1 cells were seeded in a 6-well plate with a final concentration of 5.0 × 10^5 cell/mL. […] After the incubation period, 500 μL of cells were harvested and transferred into a microcentrifuge tube. The sample was centrifuged at 1500 rpm for 5 min at 4 °C (Mikro 200R, Hettich, Kirchlengern, Germany) and the supernatant was discarded, and 500 μL of cold PBS was added to the sample followed by another centrifugation for 5 min, then the supernatant was discarded. Next, 150 μL of Annexin V binding buffer and 5.0 μL of Annexin V-FITC were added to the sample in the dark and then incubated for 15 min at room temperature. After that, 3.0 μL of propidium iodide (PI) was added to the samples. The samples then incubated for another 2 min at room temperature. Finally, 350 μL of Annexin V binding buffer was added to the samples and transferred into Falcon tubes. The samples were then analyzed using a BD FACS Canto II flow cytometer (BD Bioscience, East Rutherford, NJ, USA).
# [4] = tested on: WIL2-NS non-cancerous cells; assay: WST-1 cytotoxicity assay on WIL2-NS cells; assay type: cell-based; conditions: read-out: Value of IC50 WIL2-NS
# Procedure: as §1, §2
# Jurkat E6.1 cells [5] = tested on: Jurkat E6.1 cells; parameters: method as in earlier work; conditions: ref 31 (Kamaludin et al.); cited from earlier work
# [6] = WST-1, 24 h exposure, highest concentration 5.0 μM, mean ± SEM, n = 3
compound,measurement,setting,value
"CC[C@]1(O)C[C@H]2CN(CCc3c([nH]c4ccccc34)[C@@](C(=O)OC)(c3cc4c(cc3OC)N(C=O)[C@H]3[C@@](O)(C(=O)OC)[C@H](OC(C)=O)[C@]5(CC)C=CCN6CC[C@]43[C@@H]65)C2)C1 [Vincristine (positive control), Vincristine, reference compound]",cells in G0/G1 phase,Jurkat E6.1 cells [1],66.76% ± 1.39
same,cells in G2/M phase,Jurkat E6.1 cells [1],8.00% ± 0.00
same,cells in S phase,Jurkat E6.1 cells [1],25.24% ± 1.39
same,IC50,"[2]; Homo sapiens, Jurkat E6.1, 24 h",240 ± 20 nM
same,Selectivity Index (SI),[2],0.96
same,kind of effect on the cells (cytostatic or cytotoxic),[2],cytostatic effects
same,"viability at 24 h, 0.3 µM",in vitro,40%
same,cell population in early apoptotic phase,Jurkat E6.1 cells [3],36.07 ± 2.85%
same,cell population in late apoptotic phase,Jurkat E6.1 cells [3],18.57 ± 1.31%
same,total apoptosis population,Jurkat E6.1 cells [3],54.64%
same,IC50,"[4]; Homo sapiens, WIL2-NS, 24 h",230 ± 30 nM
COc1cccc2c1C(=O)c1c(O)c3c(c(O)c1C2=O)C[C@@](O)(C(=O)CO)C[C@@H]3O[C@H]1C[C@H](N)[C@H](O)[C@H](C)O1 [doxorubicin],IC50,Jurkat E6.1 cells [5],100 nM
"CCN(CC)C(=S)[S][Sn]([CH3])([CH3])[S]C(=S)N(CC)CC [ODTC 7, dimethyltin(IV) diethyl dithiocarbamate]",cells in G0/G1 phase,Jurkat E6.1 cells [1],23.41% ± 5.37
same,cells in G2/M phase,Jurkat E6.1 cells [1],17.39% ± 4.52
same,cells in S phase,Jurkat E6.1 cells [1],57.19% ± 2.89
same,Selectivity Index (SI),[2],0.15
same,IC50,[2]; [6],3400 ± 250 nM
same,cell population in early apoptotic phase,Jurkat E6.1 cells [3],13.13 ± 2.62%
same,cell population in late apoptotic phase,Jurkat E6.1 cells [3],14.93 ± 1.35%
same,total apoptosis population,Jurkat E6.1 cells [3],28.06%
same,IC50,[4]; [6],500 ± 20 nM
"CC(C)N(C(=S)[S][Sn]([CH3])([CH3])[S]C(=S)N(C(C)C)C(C)C)C(C)C [ODTC 6, dimethyltin(IV) diisopropyl dithiocarbamate]",kind of effect on the cells (cytostatic or cytotoxic),[2],cytostatic effect
same,Value of IC50 Jurkat E6.1,[2]; [6],does not produce IC50 value at the tested range of concentration
same,IC50,[4]; [6],5000 ± 20 nM
"C=CCN(CC=C)C(=S)[S][Sn]([c]1ccccc1)([c]1ccccc1)[c]1ccccc1 [ODTC 4, triphenyltin(IV) diallyl dithiocarbamate]",cells in G0/G1 phase,Jurkat E6.1 cells [1],13.22% ± 2.30
same,cells in G2/M phase,Jurkat E6.1 cells [1],22.67% ± 3.54
same,cells in S phase,Jurkat E6.1 cells [1],64.10% ± 4.46
same,Selectivity Index (SI),[2],0.71
same,IC50,[2]; [6],940 ± 80 nM
same,cell population in early apoptotic phase,Jurkat E6.1 cells [3],49.70 ± 2.84%
same,cell population in late apoptotic phase,Jurkat E6.1 cells [3],38.63 ± 2.73%
same,total apoptosis population,Jurkat E6.1 cells [3],88.33%
same,IC50,[4]; [6],670 ± 140 nM
"C=CCN(CC=C)C(=S)[S][Sn]([S]C(=S)N(CC=C)CC=C)([c]1ccccc1)[c]1ccccc1 [ODTC 2, diphenyltin(IV) diallyl dithiocarbamate]",cells in G0/G1 phase,Jurkat E6.1 cells [1],21.63% ± 3.17
same,cells in G2/M phase,Jurkat E6.1 cells [1],19.03% ± 0.20
same,cells in S phase,Jurkat E6.1 cells [1],59.37% ± 3.07
same,Selectivity Index (SI),[2],0.50
same,IC50,[2]; [6],1050 ± 20 nM
same,cell population in early apoptotic phase,Jurkat E6.1 cells [3],17.20 ± 2.69%
same,cell population in late apoptotic phase,Jurkat E6.1 cells [3],30.07 ± 2.38%
same,total apoptosis population,Jurkat E6.1 cells [3],47.27%
same,IC50,[4]; [6],520 ± 140 nM
"CC(C)N(C(=S)[S][Sn]([S]C(=S)N(C(C)C)C(C)C)([c]1ccccc1)[c]1ccccc1)C(C)C [ODTC 1, diphenyltin(IV) diisopropyl dithiocarbamate]",Phases of Cell Cycle Arrest,Jurkat E6.1 cells [1],does not cause cell cycle arrest at any phase; also recorded: Not cell cycle specific
same,Selectivity Index (SI),[2],0.96
same,IC50,[2]; [6],1450 ± 20 nM
same,cell population in early apoptotic phase,Jurkat E6.1 cells [3],12.23 ± 1.93%
same,cell population in late apoptotic phase,Jurkat E6.1 cells [3],13.17 ± 1.13%
same,total apoptosis population,Jurkat E6.1 cells [3],25.4%
same,IC50,[4]; [6],1390 ± 460 nM
"CCN(CC)C(=S)[S][Sn]([c]1ccccc1)([c]1ccccc1)[c]1ccccc1 [ODTC 5, triphenyltin(IV) diethyl dithiocarbamate]",cells in G0/G1 phase,Jurkat E6.1 cells [1],9.84% ± 0.71
same,cells in G2/M phase,Jurkat E6.1 cells [1],31.46% ± 2.86
same,cells in S phase,Jurkat E6.1 cells [1],58.70% ± 3.37
same,Selectivity Index (SI),[2],0.86
same,IC50,[2]; [6],920 ± 50 nM
same,cell population in early apoptotic phase,Jurkat E6.1 cells [3],56.50 ± 1.64%
same,cell population in late apoptotic phase,Jurkat E6.1 cells [3],26.47 ± 1.23%
same,total apoptosis population,Jurkat E6.1 cells [3],82.97 ± 2.84%
same,IC50,[4]; [6],790 ± 50 nM
"CC(C)N(C(=S)[S][Sn]([c]1ccccc1)([c]1ccccc1)[c]1ccccc1)C(C)C [ODTC 3, triphenyltin(IV) diisopropyl dithiocarbamate]",cells in G0/G1 phase,Jurkat E6.1 cells [1],68.37% ± 4.78
same,cells in G2/M phase,Jurkat E6.1 cells [1],4.34% ± 0.99
same,cells in S phase,Jurkat E6.1 cells [1],27.29% ± 5.12
same,Selectivity Index (SI),[2],1.11
same,IC50,[2]; [6],670 ± 60 nM
same,cell population in early apoptotic phase,Jurkat E6.1 cells [3],59.70 ± 1.96%
same,cell population in late apoptotic phase,Jurkat E6.1 cells [3],27.80 ± 2.17%
same,total apoptosis population,Jurkat E6.1 cells [3],87.5%
same,IC50,[4]; [6],750 ± 70 nM
